Counter-ions that a name gives are not always drawn.
What was measured:
Format in all cases: cell-based
[1] = biological target: T1, 5-HT2C receptor (Homo sapiens, UniProt P28335); test: R-SAT functional receptor assay, antagonist activity at 5-HT2C
T1 construct: expressed in transfected cells; host or cells: NIH3T3 cells, pSI mammalian expression vector
T1 sequence (P28335 33-458): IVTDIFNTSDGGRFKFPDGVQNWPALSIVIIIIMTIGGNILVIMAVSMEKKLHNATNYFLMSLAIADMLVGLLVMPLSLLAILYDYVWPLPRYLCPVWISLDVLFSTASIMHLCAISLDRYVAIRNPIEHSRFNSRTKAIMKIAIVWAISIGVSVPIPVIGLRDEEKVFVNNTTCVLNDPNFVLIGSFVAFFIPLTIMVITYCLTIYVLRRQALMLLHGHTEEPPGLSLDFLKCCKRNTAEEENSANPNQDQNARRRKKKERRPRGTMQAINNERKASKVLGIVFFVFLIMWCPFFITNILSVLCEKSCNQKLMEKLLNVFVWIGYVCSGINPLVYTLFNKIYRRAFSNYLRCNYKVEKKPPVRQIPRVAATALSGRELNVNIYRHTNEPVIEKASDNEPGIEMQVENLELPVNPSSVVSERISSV
Description: (§1) Receptor Selection and Amplification (R-SAT®) Assays. The functional receptor assay, Receptor Selection and Amplification Technology (R-SAT®), was used (with minor modifications from the procedure described previously (Brann, M. R. U.S. Pat. No. 5,707,798, 1998; Chem. Abstr. 1998, 128, 111548) to screen compounds for efficacy at the 5-HT2A receptor. Briefly, NIH3T3 cells were grown in 96 well tissue culture plates to 70-80% confluence. Cells were transfected for 12-16 h with plasmid DNAs using superfect (Qiagen Inc.) as per manufacturer's protocols. R-SAT's were generally performed with 50 ng/well of receptor and 20 ng/well of β-galactosidase plasmid DNA. All receptor and G-protein constructs used were in the pSI mammalian expression vector (Promega Inc) as described previously. The 5-HT2A or 5-HT2C receptor gene was amplified by nested PCR from brain cDNA using the oligodeoxynucleotides based on the published sequence (Saltzman et. al, Biochem. Biophys. Res. Comm. 1991, 181, 1469). For large-scale transfections, cells were transfected for 12-16 h, then trypsinized and frozen in DMSO. Frozen cells were later thawed, plated at 10,000-40,000 cells per well of a 96 well plate that contained drug. With both methods, cells were then grown in a humidified atmosphere with 5% ambient CO2 for five days. Media was then removed from the plates and marker gene activity was measured by the addition of the β-galactosidase substrate o-nitrophenyl β-D-galactopyranoside (ONPG, in PBS with 5% NP-40). The resulting colorimetric reaction was measured in a spectrophotometric plate reader (Titertek Inc.) at […]. All data were analyzed using the computer program XLFit (IDBSm). Efficacy is the percent maximal repression compared to repression by a control compound (ritanserin in the case of 5-HT2A). pIC50 is the negative of the log(IC50), where IC50 is the calculated concentration in Molar that produces 50% maximal repression. Various metabolites of N-(1-methylpiperidin-4-yl)-N-(4-fluorophenylmethyl)-N′-(4-(2-methylpropyloxy)phenylmethyl) carbamide, including the compounds of Formulae (I), (II), (III), (IV) and (V) as well as other metabolites, were assayed as described herein.

[2] = biological target: T2, 5-HT2A receptor (Homo sapiens, UniProt P28223); test: R-SAT functional receptor assay, inverse agonist activity at 5-HT2A
T2 construct: expressed in transfected cells; host or cells: NIH3T3 cells, pSI mammalian expression vector
T2 sequence (P28223 whole entry): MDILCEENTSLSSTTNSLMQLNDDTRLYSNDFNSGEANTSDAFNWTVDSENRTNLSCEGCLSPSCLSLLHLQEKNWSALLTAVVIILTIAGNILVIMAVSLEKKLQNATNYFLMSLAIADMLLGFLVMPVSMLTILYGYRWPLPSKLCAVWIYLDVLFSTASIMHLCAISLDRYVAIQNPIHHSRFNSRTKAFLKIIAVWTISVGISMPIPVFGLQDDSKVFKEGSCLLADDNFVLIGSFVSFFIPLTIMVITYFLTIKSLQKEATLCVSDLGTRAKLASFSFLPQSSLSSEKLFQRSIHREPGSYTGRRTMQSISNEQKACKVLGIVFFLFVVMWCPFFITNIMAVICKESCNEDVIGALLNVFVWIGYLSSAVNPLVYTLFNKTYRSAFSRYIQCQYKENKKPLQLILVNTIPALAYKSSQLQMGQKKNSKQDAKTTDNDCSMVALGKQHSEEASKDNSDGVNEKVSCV
Description: as §1

[3] = biological target: T2, 5-HT2A receptor; test: R-SAT functional receptor assay, antagonist activity at 5-HT2A
Description: as §1

[4] = biological target: T1, 5-HT2C receptor; test: R-SAT functional receptor assay, inverse agonist activity at 5-HT2C
Description: as §1, with “Various metabolites of N-(1-methylpiperidin-4-yl)-N-(4-fluorophenylmethyl)-N′-(4-(2-methylpropyloxy)phenylmethyl) carbamide, including the compounds of Formulae (I), (II), (III), (IV) and (V) as well as other metabolites, were assayed as described herein.” left out

SMILES | Ki [1] [µM] | IC50 [2] [µM] | Ki [3] [µM] | IC50 [4] [µM]
CN1CCC(N(Cc2ccc(F)cc2)C(=O)NCc2ccc(O)cc2)CC1 [Formula (I), N-(4-Fluorobenzyl)-N-(1-methylpiperidin-4-yl)-N′-(4-hydroxybenzyl)carbamide Hydrochloride] | 0.316 | 0.0316 | 0.0126 | –
CC(C)COc1ccc(CNC(=O)N(Cc2ccc(F)cc2)C2CCNCC2)cc1 [Formula (II), N-(4-Fluorobenzyl)-N-(piperidin-4-yl)-N′-(4-isobutoxybenzyl)carbamide Hydrochloride] | 0.1 | 0.00251 | 0.00126 | –
CN1CCC(N(Cc2ccc(F)cc2)C(=O)NCc2ccc(OCC(C)(C)O)cc2)CC1 [Formula (III), N-(4-Fluorobenzyl)-N-(1-methylpiperidin-4-yl)-N′-[4-(2-hydroxy)isobutoxybenzyl]carbamide Hydrochloride] | 0.158 | 0.002 | 0.001 | 0.794
C[C@H](CO)COc1ccc(CNC(=O)N(Cc2ccc(F)cc2)C2CCN(C)CC2)cc1 [Formula (IV), N-(4-Fluorobenzyl)-N-(1-methyl-piperidin-4-yl)-N′-(4-(R)-[(3-hydroxy)-isobutoxy]benzyl)carbamide] | 0.158 | 0.00316 | – | 0.2
CC(C)COc1ccc(CNC(=O)N(Cc2ccc(F)cc2)C2CC[N+](C)([O-])CC2)cc1 (centres unmarked) [Formula (V), N-(4-Fluorobenzyl)-N-(1-methyl-1-oxopiperidin-4-yl)-N′-(4-isobutoxybenzyl)carbamide] | 0.398 | 0.0316 | 0.0316 | 2

From patent publication US20090082342A1, “N-SUBSTITUTED PIPERIDINE DERIVATIVES AS SEROTONIN RECEPTOR AGENTS” (Acadia Pharmaceuticals, Inc., priority 2007, published 2009)
